Results published in the supplement of paper PMC10307832.

Columns and labels:
Experiment in all cases: relative viability (nuclei count vs DMSO), 5 days (fraction); higher = more cells survive
NCI-H2126 = system: NCI-H2126
Outline: (§1)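 Relative viability equals treated-well nuclei counts divided by vehicle-well nuclei counts. Counts came from 4× images of lung cancer cell lines grown in 1536-well plates for 5 days after pin-tool dosing on the day after seeding. Dosing used one drug alone or a fixed anchor-drug dose plus five library-drug doses (not always all listed) in √10 steps, and values are medians of duplicate plates.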

SW 1573 = system: SW 1573
Outline: as §1

NCI-H2085 = system: NCI-H2085
Outline: as §1

NCI-H1993 = system: NCI-H1993
Outline: as §1

LC-2-ad = system: LC-2-ad
Outline: as §1

LU99A = system: LU99A
Outline: as §1

ABC-1 = system: ABC-1
Outline: as §1

NCI-H2023 = system: NCI-H2023
Outline: as §1

NCI-H838 = system: NCI-H838
Outline: as §1

EPLC-272H = system: EPLC-272H
Outline: as §1

UMC-11 = system: UMC-11
Outline: as §1

HCC-15 = system: HCC-15
Outline: as §1

HARA = system: HARA
Outline: as §1

PC-14 = system: PC-14
Outline: as §1

COR-L23 = system: COR-L23
Outline: as §1

NCI-H1651 = system: NCI-H1651
Outline: as §1

NCI-H650 = system: NCI-H650
Outline: as §1

NCI-H1355 = system: NCI-H1355
Outline: as §1

NCI-H358 = system: NCI-H358
Outline: as §1

NCI-H1915 = system: NCI-H1915
Outline: as §1

NCI-H2347 = system: NCI-H2347
Outline: as §1

HCC-44 = system: HCC-44
Outline: as §1

HOP-62 = system: HOP-62
Outline: as §1

Work on `O=c1cc(-c2cccc3c2Sc2ccccc2S3)oc(N2CCOCC2)c1` + C[C@]1(O)C[C@@H](c2nc(-c3ccc4ccc(-c5ccccc5)nc4c3)c3c(N)nccn32)C1 [Linsitinib] (partner 1 µM) yielded a relative viability (NCI-H2126; first compound 0.08 µM) of 0.707, a relative viability (NCI-H2126; first compound 0.253 µM) of 0.809 and a relative viability (NCI-H2126; first compound 0.8 µM) of 0.708. The relative viability (NCI-H2126; first compound 2.53 µM) was 0.667, the relative viability (NCI-H2126; first compound 8 µM) was 0.592 and the relative viability (SW 1573; first compound 0.08 µM) was 0.855. The relative viability (SW 1573; first compound 0.253 µM) was 0.819, the relative viability (SW 1573; first compound 0.8 µM) was 0.685 and the relative viability (SW 1573; first compound 2.53 µM) was 0.809. For the same compound, the relative viability (SW 1573; first compound 8 µM) was 0.811, the relative viability (NCI-H2085; first compound 0.08 µM) was 0.812 and the relative viability (NCI-H2085; first compound 0.253 µM) was 0.911. The relative viability (NCI-H2085; first compound 0.8 µM) was 0.925, the relative viability (NCI-H2085; first compound 2.53 µM) was 0.846 and the relative viability (NCI-H2085; first compound 8 µM) was 0.595. It also gave a relative viability (NCI-H1993; first compound 0.08 µM) of 0.739, a relative viability (NCI-H1993; first compound 0.253 µM) of 0.683 and a relative viability (NCI-H1993; first compound 0.8 µM) of 0.687. The relative viability (NCI-H1993; first compound 2.53 µM) was 0.799, the relative viability (NCI-H1993; first compound 8 µM) was 0.859 and the relative viability (LC-2-ad; first compound 0.08 µM) was 0.79. The relative viability (LC-2-ad; first compound 0.253 µM) was 0.967, the relative viability (LC-2-ad; first compound 0.8 µM) was 0.828 and the relative viability (LC-2-ad; first compound 2.53 µM) was 0.749. For the same compound, the relative viability (LC-2-ad; first compound 8 µM) was 0.802, the relative viability (LU99A; first compound 0.08 µM) was 0.58 and the relative viability (LU99A; first compound 0.253 µM) was 0.582. For the same compound, the relative viability (LU99A; first compound 0.8 µM) was 0.631, the relative viability (LU99A; first compound 2.53 µM) was 0.544 and the relative viability (LU99A; first compound 8 µM) was 0.608. It also gave a relative viability (ABC-1; first compound 0.08 µM) of 0.627, a relative viability (ABC-1; first compound 0.253 µM) of 1.02 and a relative viability (ABC-1; first compound 0.8 µM) of 0.717. The relative viability (ABC-1; first compound 2.53 µM) was 0.711, the relative viability (ABC-1; first compound 8 µM) was 0.954 and the relative viability (NCI-H2023; first compound 0.08 µM) was 0.611. For the same compound, the relative viability (NCI-H2023; first compound 0.253 µM) was 0.747, the relative viability (NCI-H2023; first compound 0.8 µM) was 0.723 and the relative viability (NCI-H2023; first compound 2.53 µM) was 0.458. The relative viability (NCI-H2023; first compound 8 µM) was 0.416, the relative viability (NCI-H838; first compound 0.08 µM) was 0.958 and the relative viability (NCI-H838; first compound 0.253 µM) was 1.49. For the same compound, the relative viability (NCI-H838; first compound 0.8 µM) was 0.821, the relative viability (NCI-H838; first compound 2.53 µM) was 0.859 and the relative viability (NCI-H838; first compound 8 µM) was 0.899. For the same compound, the relative viability (EPLC-272H; first compound 0.08 µM) was 1.12, the relative viability (EPLC-272H; first compound 0.253 µM) was 1.31 and the relative viability (EPLC-272H; first compound 0.8 µM) was 1.3. The relative viability (EPLC-272H; first compound 2.53 µM) was 1.19, the relative viability (EPLC-272H; first compound 8 µM) was 1.13 and the relative viability (UMC-11; first compound 0.08 µM) was 1.16. The relative viability (UMC-11; first compound 0.253 µM) was 1.17, the relative viability (UMC-11; first compound 0.8 µM) was 1.18 and the relative viability (UMC-11; first compound 2.53 µM) was 1.06. For the same compound, the relative viability (UMC-11; first compound 8 µM) was 1.23, the relative viability (HCC-15; first compound 0.08 µM) was 0.958 and the relative viability (HCC-15; first compound 0.253 µM) was 0.93. The relative viability (HCC-15; first compound 0.8 µM) was 0.904, the relative viability (HCC-15; first compound 2.53 µM) was 0.844 and the relative viability (HCC-15; first compound 8 µM) was 0.88. It also gave a relative viability (HARA; first compound 0.08 µM) of 1.01, a relative viability (HARA; first compound 0.253 µM) of 1.2 and a relative viability (HARA; first compound 0.8 µM) of 1.08. It also gave a relative viability (HARA; first compound 2.53 µM) of 0.948, a relative viability (HARA; first compound 8 µM) of 0.743 and a relative viability (PC-14; first compound 0.08 µM) of 1.02. For the same compound, the relative viability (PC-14; first compound 0.253 µM) was 1.07, the relative viability (PC-14; first compound 0.8 µM) was 0.966 and the relative viability (PC-14; first compound 2.53 µM) was 0.92. The relative viability (PC-14; first compound 8 µM) was 0.948, the relative viability (COR-L23; first compound 0.08 µM) was 0.958 and the relative viability (COR-L23; first compound 0.253 µM) was 0.965. It also gave a relative viability (COR-L23; first compound 0.8 µM) of 1.13, a relative viability (COR-L23; first compound 2.53 µM) of 1.08 and a relative viability (COR-L23; first compound 8 µM) of 1.04. The relative viability (NCI-H1651; first compound 0.08 µM) was 1.06, the relative viability (NCI-H1651; first compound 0.253 µM) was 1.2 and the relative viability (NCI-H1651; first compound 0.8 µM) was 0.954. For the same compound, the relative viability (NCI-H1651; first compound 2.53 µM) was 0.879, the relative viability (NCI-H1651; first compound 8 µM) was 0.865 and the relative viability (NCI-H650; first compound 0.08 µM) was 0.829. It also gave a relative viability (NCI-H650; first compound 0.253 µM) of 0.854, a relative viability (NCI-H650; first compound 0.8 µM) of 0.782 and a relative viability (NCI-H650; first compound 2.53 µM) of 0.642. The relative viability (NCI-H650; first compound 8 µM) was 0.7, the relative viability (NCI-H1355; first compound 0.08 µM) was 0.853 and the relative viability (NCI-H1355; first compound 0.253 µM) was 0.937. The relative viability (NCI-H1355; first compound 0.8 µM) was 0.818, the relative viability (NCI-H1355; first compound 2.53 µM) was 0.712 and the relative viability (NCI-H1355; first compound 8 µM) was 0.689. For the same compound, the relative viability (NCI-H358; first compound 0.08 µM) was 0.618, the relative viability (NCI-H358; first compound 0.253 µM) was 0.665 and the relative viability (NCI-H358; first compound 0.8 µM) was 0.79. For the same compound, the relative viability (NCI-H358; first compound 2.53 µM) was 0.707, the relative viability (NCI-H358; first compound 8 µM) was 0.784 and the relative viability (NCI-H1915; first compound 0.08 µM) was 1.06. The relative viability (NCI-H1915; first compound 0.253 µM) was 1.1, the relative viability (NCI-H1915; first compound 0.8 µM) was 1.07 and the relative viability (NCI-H1915; first compound 2.53 µM) was 1.05. The relative viability (NCI-H1915; first compound 8 µM) was 1.12, the relative viability (NCI-H2347; first compound 0.08 µM) was 0.918 and the relative viability (NCI-H2347; first compound 0.253 µM) was 1.15. For the same compound, the relative viability (NCI-H2347; first compound 0.8 µM) was 0.998, the relative viability (NCI-H2347; first compound 2.53 µM) was 1.02 and the relative viability (NCI-H2347; first compound 8 µM) was 1.11. The relative viability (HCC-44; first compound 0.08 µM) was 0.681, the relative viability (HCC-44; first compound 0.253 µM) was 0.532 and the relative viability (HCC-44; first compound 0.8 µM) was 0.696. It also gave a relative viability (HCC-44; first compound 2.53 µM) of 0.623, a relative viability (HCC-44; first compound 8 µM) of 0.548 and a relative viability (HOP-62; first compound 0.08 µM) of 1.04. It also gave a relative viability (HOP-62; first compound 0.253 µM) of 1.01, a relative viability (HOP-62; first compound 0.8 µM) of 1.01 and a relative viability (HOP-62; first compound 2.53 µM) of 0.789. It also gave a relative viability (HOP-62; first compound 8 µM) of 0.917.
